Drawing on BindingDB's records for doi:10.1021/acs.jmedchem.0c00546 (University of Tennessee, 2020), this text covers Ki for two compounds.

The target in this assay is T1, Dihydrofolate reductase (Homo sapiens, UniProt P00374).
T1 sequence (P00374 whole entry): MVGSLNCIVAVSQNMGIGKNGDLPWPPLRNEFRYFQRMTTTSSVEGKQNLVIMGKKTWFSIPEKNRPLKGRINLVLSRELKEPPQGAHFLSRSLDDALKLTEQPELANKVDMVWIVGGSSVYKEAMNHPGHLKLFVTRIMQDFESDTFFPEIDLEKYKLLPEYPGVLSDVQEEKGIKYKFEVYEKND
Description: Inhibition of human DHFR in presence of DHF and NADPH by UV-vis spectrometry by Lineweaver-Burk plot analysis.

As a reminder, the Ki is the dissociation constant of the complex between target and ligand, obtained from inhibition or displacement. `N[C@H](Cc1c[nH]c2ccccc12)C(=O)O` [(2R)-2-amino-3-(1H-indol-3-yl)propanoic acid]: the Ki was determined as 880 µM.

As for `Nc1ccnc(N)n1` [Diaminopyrimidine], the Ki is 180 µM.
